Results as given in publication PMC2408617, “Gametogenesis in Malaria Parasites Is Mediated by the cGMP-Dependent Protein Kinase” (PLoS Biology, 2008).
Where two headings read alike, the source gives them in different places.

How the values were obtained:
[1] = test system: native PDE activity in P. falciparum particulate fractions; experiment: PDE assay: cGMP hydrolysis by native parasite particulate fractions; type: biochemical, Plasmodium falciparum; settings: for IC50: cGMP substrate; for effect on native PDE enzyme activity: parasite particulate fractions
Procedure: PDE activity in native parasite fractions was measured using a modification of a previously published method. Parasites were frozen in liquid nitrogen and stored at −80 °C until use. Parasites were resuspended in 500 μl of lysis buffer (20 mM hepes and 250 mM sucrose [pH 7.0]), subjected to five cycles of freeze–thaw in liquid nitrogen and pelleted at 100,000 g for 30 min. Particulate fractions were resuspended in lysis buffer containing EDTA-free protease inhibitors (Roche). PDE assays were carried out in triplicate wells of a 96-well plate in the presence of [^3H]-labelled cGMP (GE Healthcare) for 30 min at 37 °C. Reactions were terminated by boiling the plate for 1 min, followed by a 3-min centrifugation at 900 g. One unit of alkaline phosphatase was added to each well and incubated for 30 min at 37 °C. [^3H]-labelled guanosine was separated from the radiolabelled cGMP substrate using ion exchange (BioRad AG 1 × 8 resin). Supernatants containing the [^3H]-labelled guanosine product were added to scintillation fluid (Optiphase Supermix; Wallac). Scintillation was measured using a Wallac 1450 Microbeta Liquid Scintillation Counter (Perkin Elmer) and PDE activity was expressed in picomoles cGMP/minute/milligram protein. Inhibition assays were carried out in the presence of compounds dissolved in DMSO. PDE assays for specific activity and IC50 determination were carried out at a native lysate dilution that gave 30% cGMP/cAMP hydrolysis.
Supplementary file pbio.0060139.st001.doc: Table S1 The Effect of PDE Inhibitors on Particulate Fractions Isolated from P. falciparum Sexual and Asexual Blood Stage Parasites IC50 values (the concentration of compound that gave 50% inhibition of native PDE activity) are mean ± SEM in micromolar and were calculated using the Prism software package (GraphPad Software). Percentage inhibition data were fitted to a sigmoidal dose-response curve using nonlinear regression. n.d., not determined; >200, sufficient inhibition was not observed for an IC50 calculation. The specific activity of cGMP hydrolysis measured in the individual life cycle stages (at a substrate concentration of 0.82 μM) is listed in the lower row. Specific activity data are mean ± SEM in picomoles cGMP/minute/milligram. (43 KB DOC) Click here for additional data file.

[2] = test system: P. falciparum gametocytes (WT / Pfrh3- control); experiment: Gametogenesis assay: rounding up, WT/control gametocytes; type: cell-based, Plasmodium falciparum; settings: for stimulation of rounding up: live gametocytes, zaprinast in absence of XA
Procedure: (§1) P. falciparum gametocytes were produced from the 3D7 clone in human A+ erythrocytes with 10% human serum (National Blood Service), and enriched using Nycodenz (Nycoprep 1.077; Axis-Shield) centrifugation as previously described. For gametogenesis, cells were resuspended at 5 × 10^6 parasites per millilitre and induced with either 20 μM XA or 25–400 μM zaprinast in complete medium, and a reduction (of >5 °C) in temperature. For gametogenesis assays, 10 min post induction, cells were mounted on a wet smear. […] Test reagents including zaprinast, BAPTA-AM, compound 1, and compound 2 were resuspended in DMSO as stock solutions and diluted in complete medium for gametogenesis assays, with the XA stock resuspended in RPMI 1640. The maximum final DMSO concentration in the gametogenesis medium was 0.4%, which was used as a negative control. […] Compound 1 and compound 2 were added at the point of activation with either XA or zaprinast, whereas cells were preincubated with 100 μM BAPTA-AM as previously described. Statistical multivariate analysis was carried out using Poisson regression (Stata 9.2; StataCorp) to compare the effects of genetic background (mutant vs. WT) and experimental replicate (included as categorical data in the analysis) on the rates of rounding up at individual drug concentrations. For each drug concentration, the mutants were tested separately against the WT control, and the resultant output was anti-logged to give the relative risk (and 95% confidence interval) for rounding up with genetic background.

[3] = test system: P. falciparum gametocytes; experiment: Gametogenesis assay: exflagellation; type: cell-based, Plasmodium falciparum; settings: for inhibition of exflagellation: gametocytes stimulated with XA or zaprinast
Procedure: as §1

PfPKGT618Q gametocytes = experiment: Gametogenesis assay: rounding up, PfPKGT618Q gametocytes; type: cell-based, Plasmodium falciparum
Procedure: as §1
Supplementary file pbio.0060139.st002.doc: Table S2 Poisson Regression Analysis for Compound 1 Sensitivity of Rounding Up of Both Mutants Compared to WT Each rounding-up measurement was made by counting 200 cells and scoring for rounding up (or not rounding up). At each compound 1 concentration, rounding-up replicate counts for both clones were compared to WT values separately by Poisson regression analysis using the Stata 9.2 package (StataCorp). Where n < 2 (indicated by n.d.), data were excluded from the analysis. Compound 1 concentration (comp1) is shown in micromolar. The p-values from this analysis and the relative risk (RR) of rounding up with genetic background (and 95% confidence intervals [CI]) are shown. (38 KB DOC) Click here for additional data file.

Eimeria = settings: cited from earlier work
T. gondii = settings: cited from earlier work
[4] = test system: P. falciparum gametocytes; experiment: Gamete emergence from erythrocytes, IFA with anti-Band 3 antibody; type: cell-based, Plasmodium falciparum; settings: pretreatment with BAPTA-AM
Text: Figure 2 Intracellular Ca^2+ Is Not Required for the Initial Step of P. falciparum Gametogenesis To investigate the role of intracellular Ca^2+ in rounding up and exflagellation, stage V Pfrh3^− control gametocytes were pretreated with the BAPTA-AM (BP) before stimulation of gametogenesis with either XA or zaprinast (ZP). (A) (Upper panel) Gametocytes were scored as either round or crescent-shaped, and plotted as percentage rounded-up. […] (Lower panel) The number of centres of exflagellation per 10,000 gametocytes was scored. […] (B) Emergence from host erythrocytes before and after stimulation of gametogenesis with or without BAPTA-AM was scored using IFA with an anti-erythrocyte Band 3 monoclonal antibody. The proportion of cells not reacting with the antibody (indicative of complete emergence) was counted and plotted as a percentage.
For IFA, 3 × 10^6 mature P. falciparum gametocytes were fixed in paraformaldehyde according to a method used for P. berghei. Cells were washed thoroughly and allowed to settle on wells coated with 0.01% poly-L-lysine solution. […] Digital images were recorded using a side-mounted 1K 1.3M pixel High Sensitivity AMT Advantage ER CCD camera system.

[5] = gametocyte particulate fraction, mean, read-out: IC50, inhibition of native PDE activity, Gametocyte
[6] = ring particulate fraction, read-out: IC50, inhibition of native PDE activity, Ring
[7] = schizont particulate fraction, read-out: IC50, inhibition of native PDE activity, Schizont

Structure (SMILES) | IC50 [1, 5] [µM] | IC50 [1, 6] [µM] | IC50 [1, 7] [µM] | effect on native PDE enzyme activity [1] | also measured
COc1ccc(Cc2nccc3cc(OC)c(OC)cc23)cc1OC [Papaverine] | > 200 | 63.4 | 173 | – | –
Cn1c(=O)c2[nH]cnc2n(C)c1=O [Theophylline] | > 200 | – | > 200 | little or no effect | –
COc1ccc(C2CNC(=O)C2)cc1OC1CCCC1 (stereo not drawn) [Rolipram] | > 200 | > 200 | > 200 | – | –
Cn1c(=O)c2c(ncn2C)n(C)c1=O [Caffeine] | > 200 | – | > 200 | little or no effect | –
OCCN(CCO)c1nc(N2CCCCC2)c2nc(N(CCO)CCO)nc(N3CCCCC3)c2n1 [Dipyridamole] | > 200 | 6.5 | 7 | – | –
CCCOc1ccccc1-c1nc2nn[nH]c2c(=O)[nH]1 [Zaprinast, zaprinast] | 33.7 ± 1.3 | 3.5 | 3 ± 1.2 | effective inhibitor | stimulation of rounding up [2]: stimulated rounding up; level of rounding up induced compared with XA ([2]; zaprinast 400 μM): almost equivalent to those triggered by XA; stimulation of exflagellation ([3]; in absence of XA): triggered both rounding up and exflagellation in a dose-dependent manner; level of exflagellation induced compared with XA ([3]; zaprinast 400 μM): almost equivalent to those triggered by XA
CN(C)Cc1ccn2c(-c3ccnc(N)n3)c(-c3ccc(F)cc3)nc2c1 [compound 2, 4-[7-[(dimethylamino)methyl]-2-(4-fluorophenyl)imidazo[1,2-a]pyridine-3-yl]pyrimidin-2-amine] | – | – | – | – | inhibitory effects on rounding up of PfPKGT618Q gametocytes (PfPKGT618Q gametocytes; 2 μM, stimulation with zaprinast or XA): absence of inhibitory effects; lower sensitivity of PfPKGT618Q gametocytes than control cells (rounding up) (PfPKGT618Q gametocytes; range of inhibitor concentrations, approximately): 10–20 fold; inhibition of exflagellation [3]: inhibited exflagellation in a dose-dependent manner; difference in sensitivity of exflagellation between control and PfPKGT618Q cell lines ([3]; unpublished data): no significant difference in sensitivity; effect on Eimeria infection in chickens (Eimeria): cure; effect on infection by T. gondii in mice (T. gondii): cure
CCOC(=O)c1cnc2c(cnn2CC)c1NN=C(C)C [Etazolate] | – | 20.7 | 17.6 | – | –
COc1cc2c(cc1OC)-c1c/c(=N\c3c(C)cc(C)cc3C)n(C)c(=O)n1CC2 [Trequinsin] | 193 | 26.7 | 126 | – | –
CC(=O)OCOC(=O)CN(CC(=O)OCOC(C)=O)c1ccccc1OCCOc1ccccc1N(CC(=O)OCOC(C)=O)CC(=O)OCOC(C)=O [BAPTA-AM] | – | – | – | – | inhibition of rounding up ([2]; control gametocytes stimulated with XA (or zaprinast)): failed to inhibit the rounding up; inhibition of exflagellation [3]: blocked exflagellation; emergence of gametes from erythrocytes [4]: reduced emergence of gametes from erythrocytes
CC(C)Cn1c(=O)n(C)c(=O)c2[nH]cnc21 [IBMX] | > 200 | > 200 | > 200 | little or no effect | –
CCCc1nn(C)c2c(=O)[nH]c(-c3cc(S(=O)(=O)N4CCN(C)CC4)ccc3OCC)nc12 [Sildenafil] | 75.6 | 19.4 | 22.5 | – | –
O=C(O)c1cc(O)c2cccc(O)c2n1 [XA, xanthurenic acid] | – | – | – | – | stimulation of rounding up [2]: became spherical
